Measured values: ChEMBL document CHEMBL5726286, “3-oxo-tetrahydro-furo[3,2-B]pyrrol-4(5H)-yl) derivatives I” (2017)

What was measured:
Cathepsin S = Cathepsin S (Homo sapiens, UniProt P25774); test: (§1) Enzyme Assay: Recombinant human cathepsins (CatS, CatK, CatL) were purchased from a Enzo Life Sciences. All assays were carried out in 96-well format using a buffer of 50 mM KH2PO4, 50 mM NaCl, 2 mM EDTA, 0.5 mM DTT and 1% Triton-X-100, pH 6.5 for Cathepsin S and a buffer of 50 mM NaOAc, 10 mM EDTA, 1 mM DTT and 0.01% Triton-X-100, pH 5.5 for CatK/L/B. For CatS, the enzyme (0.0007 mU/well) was incubated with fluorogeninc substrate (Z-VVR-AMC, 5 μM) at RT for 10 min. For CatK the enzyme (0.00175 mU/well) was incubated with fluorogeninc substrate (Z-FR-AMC, 40 μM) at RT for 10 min. For CatL, the enzyme (0.000874 mU/well) was incubated with fluorogeninc substrate (Z-VVR-AMC, 40 μM) at RT for 10 min. Flourogenic substrate turnover was detected using a microplate reader (Synergy H4, BioTek). Ki values were calculated using the Cheng Prusoff equation (Cheng & Prosoff 1973).
Chain of Cathepsin S (P25774 whole entry): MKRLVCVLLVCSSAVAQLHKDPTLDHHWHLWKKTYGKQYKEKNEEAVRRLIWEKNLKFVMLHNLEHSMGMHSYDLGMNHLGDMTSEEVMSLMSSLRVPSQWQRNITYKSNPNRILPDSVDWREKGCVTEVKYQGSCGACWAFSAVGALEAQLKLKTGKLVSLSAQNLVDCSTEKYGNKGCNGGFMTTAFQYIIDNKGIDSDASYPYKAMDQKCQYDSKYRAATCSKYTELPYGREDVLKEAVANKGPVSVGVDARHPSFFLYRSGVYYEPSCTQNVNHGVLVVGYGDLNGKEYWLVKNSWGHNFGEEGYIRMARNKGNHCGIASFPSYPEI

Cathepsin K = target: T1, Cathepsin K (Homo sapiens, UniProt P43235); test: as §1
T1 sequence (P43235 whole entry): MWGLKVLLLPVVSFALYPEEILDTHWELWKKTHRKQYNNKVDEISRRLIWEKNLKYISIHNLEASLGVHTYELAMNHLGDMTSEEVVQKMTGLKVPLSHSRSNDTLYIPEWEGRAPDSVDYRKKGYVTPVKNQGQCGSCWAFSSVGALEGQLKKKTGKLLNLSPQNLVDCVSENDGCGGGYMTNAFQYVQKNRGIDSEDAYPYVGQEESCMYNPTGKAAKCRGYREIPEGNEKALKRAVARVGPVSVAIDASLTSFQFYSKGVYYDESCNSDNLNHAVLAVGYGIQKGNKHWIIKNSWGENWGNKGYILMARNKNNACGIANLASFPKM

Compound	Ki (Cathepsin S) [nM]	Ki (Cathepsin K) [nM]
COc1ccc(-c2ccc(C(=O)N[C@H](C(=O)N3C[C@H](Cl)[C@H]4OCC(=O)[C@H]43)C3CCCCC3)s2)nn1	344	16
O=C(N[C@H](C(=O)N1C[C@H](Cl)[C@H]2OCC(=O)[C@H]21)C1CCCCC1)c1ccc(-c2cccnc2)o1	612	54
Cc1nccc(-c2ccc(C(=O)N[C@H](C(=O)N3C[C@H](Cl)[C@H]4OCC(=O)[C@H]43)C3CCCCC3)s2)n1	238	9
O=C(N[C@H](C(=O)N1C[C@H](Cl)[C@H]2OCC(=O)[C@H]21)C1CCCCC1)c1ccc(-c2ccncn2)o1	699	262
O=C(N[C@H](C(=O)N1C[C@H](Cl)[C@H]2OCC(=O)[C@H]21)C1CCCCC1)c1cnc(-c2ccnnc2)o1	527	278
O=C(N[C@H](C(=O)N1C[C@H](Cl)[C@H]2OCC(=O)[C@H]21)C1CCCCC1)c1nnc(-c2ccncc2)s1		14
